Test results reported in BigSolDB 2.1.

COC(=O)c1ccc2cc(C(=O)OC)ccc2c1
Settings | solubility (mole fraction)
in DMAc, 299.11 K | 0.00345
in DMAc, 315.05 K | 0.0072
in DMAc, 320.35 K | 0.00895
in DMAc, 326.25 K | 0.0112
in DMAc, 330.38 K | 0.0129
in DMAc, 337.27 K | 0.0167
in DMAc, 342.39 K | 0.0202
in DMAc, 352.75 K | 0.0301
in DMAc, 358.55 K | 0.0377
in DMAc, 364.4 K | 0.0452
in DMAc, 370.8 K | 0.0573
in DMAc, 376.26 K | 0.0674
in DMAc, 381.71 K | 0.0814
in DMAc, 383.38 K | 0.0855
in DMAc, 387.01 K | 0.0963
in DMAc, 391.14 K | 0.107
in DMAc, 392.17 K | 0.112
in DMF, 303.31 K | 0.00253
in DMF, 309.36 K | 0.00341
in DMF, 317.9 K | 0.00521
in DMF, 329.65 K | 0.00884
in DMF, 335.43 K | 0.0116
in DMF, 342.21 K | 0.015
in DMF, 349.85 K | 0.0193
in DMF, 357.96 K | 0.0272
in DMF, 362.73 K | 0.0323
in DMF, 366.6 K | 0.0396
in DMF, 368.38 K | 0.0408
in DMF, 373.02 K | 0.0495
in DMF, 377.86 K | 0.0574
in DMF, 379.66 K | 0.0611
in DMF, 382.14 K | 0.0661
in DMF, 383.38 K | 0.0699
in DMSO, 298.28 K | 0.000669
in DMSO, 308.07 K | 0.00113
in DMSO, 316.57 K | 0.00179
in DMSO, 324.97 K | 0.00272
in DMSO, 340.85 K | 0.00537
in DMSO, 347.18 K | 0.00726
in DMSO, 353.35 K | 0.00952
in DMSO, 356.66 K | 0.0109
in DMSO, 365.19 K | 0.0157
in DMSO, 369.88 K | 0.016
in DMSO, 374.65 K | 0.0226
in DMSO, 386.85 K | 0.0352
in DMSO, 394.81 K | 0.0471
in DMSO, 405.07 K | 0.069
in NMP, 293.2 K | 0.0056
in NMP, 296.73 K | 0.00577
in NMP, 300.48 K | 0.00606
in NMP, 303.5 K | 0.00632
in NMP, 308.77 K | 0.00669
in NMP, 311.81 K | 0.00687
in NMP, 317.1 K | 0.0074
in NMP, 322.89 K | 0.00803
in NMP, 328.16 K | 0.00864
in NMP, 336.69 K | 0.00914
in NMP, 345.34 K | 0.0103
in NMP, 354.23 K | 0.0115
in NMP, 360.09 K | 0.0125
in NMP, 368.69 K | 0.0132
in NMP, 375.38 K | 0.016
in NMP, 383.36 K | 0.0167
in NMP, 393.2 K | 0.0195
in NMP, 404.46 K | 0.0251
in NMP, 409.92 K | 0.0271
in NMP, 414.36 K | 0.0299
in NMP, 418.83 K | 0.0328
in NMP, 423.7 K | 0.0379
in NMP, 425.77 K | 0.0399
in acetic acid, 292.49 K | 0.00051
in acetic acid, 295.65 K | 0.000621
in acetic acid, 300.35 K | 0.000804
in acetic acid, 306.86 K | 0.00116
in acetic acid, 311.63 K | 0.00147
in acetic acid, 316.5 K | 0.0019
in acetic acid, 320.65 K | 0.00232
in acetic acid, 323 K | 0.00254
in acetic acid, 329.15 K | 0.00381
in acetic acid, 333.47 K | 0.00428
in acetic acid, 337.2 K | 0.0051
in acetic acid, 343.3 K | 0.00657
in acetic acid, 350.13 K | 0.00833
in acetic acid, 357.38 K | 0.0113
in acetic acid, 362.8 K | 0.0143
in acetic acid, 366.66 K | 0.0169
in acetic acid, 372.51 K | 0.0217
in acetic acid, 375.64 K | 0.0248
in acetic acid, 381.78 K | 0.0304
in acetic acid, 385.96 K | 0.0352
in acetic acid, 392.47 K | 0.046
in acetic acid, 394.71 K | 0.0493
in acetic acid, 398.5 K | 0.0564
in acetic acid, 400.54 K | 0.0607
